Results published in patent US6380207B2, “Glucocortiocoid-selective antiinflammatory agents” (Abbott Laboratories, priority 1998, dated 2002).

Key:
[1] = target: T1, human glucocorticoid receptor-α [GRX] isoform (Homo sapiens, UniProt P04150); test: Radioligand binding with human glucocorticoid receptor cytosol ([3H]-dexamethasone); details: [3H]-Dex competition, 4° C. overnight, Cheng-Prusoff, read-out: Ki (nM) GR
T1 construct: purchased Ligand Pharmaceuticals (San Diego, Calif.); host or cells: insect SF21 cells (baculovirus)
T1 sequence (P04150 1-777): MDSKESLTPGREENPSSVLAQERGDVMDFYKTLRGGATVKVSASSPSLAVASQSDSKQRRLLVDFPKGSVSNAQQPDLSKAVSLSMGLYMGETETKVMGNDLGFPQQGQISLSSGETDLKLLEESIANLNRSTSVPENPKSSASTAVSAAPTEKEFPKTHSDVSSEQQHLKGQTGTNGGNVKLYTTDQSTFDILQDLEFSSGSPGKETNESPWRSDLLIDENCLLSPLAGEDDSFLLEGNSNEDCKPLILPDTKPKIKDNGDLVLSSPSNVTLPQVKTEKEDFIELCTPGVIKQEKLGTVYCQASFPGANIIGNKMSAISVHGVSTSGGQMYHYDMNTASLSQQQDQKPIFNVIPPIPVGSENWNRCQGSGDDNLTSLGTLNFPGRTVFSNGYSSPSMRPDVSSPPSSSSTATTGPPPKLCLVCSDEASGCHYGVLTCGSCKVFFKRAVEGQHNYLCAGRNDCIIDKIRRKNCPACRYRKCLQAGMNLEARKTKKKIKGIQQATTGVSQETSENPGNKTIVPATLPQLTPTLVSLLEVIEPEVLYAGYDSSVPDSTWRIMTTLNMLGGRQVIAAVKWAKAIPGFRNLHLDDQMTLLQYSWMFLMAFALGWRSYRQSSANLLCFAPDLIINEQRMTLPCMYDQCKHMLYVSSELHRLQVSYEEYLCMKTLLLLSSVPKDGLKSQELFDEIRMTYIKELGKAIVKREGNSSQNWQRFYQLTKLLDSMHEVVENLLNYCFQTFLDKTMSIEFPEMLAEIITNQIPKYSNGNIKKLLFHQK
Excerpt: (§1) The procedure described in Anal. Biochem. 1970, 37, 244-252, hereby incorporated by reference, was used. Briefly, cytosol preparations of human glucocorticoid receptor-α [GRX] isoform and human progesterone receptor-A [PRA] isoform were obtained from Ligand Pharmaceuticals (San Diego, Calif.). Both receptor cDNAs were cloned into baculovirus expression vectors and expressed in insect SF21 cells. [^3H]-dexamethasone (Dex, specific activity 82-86 Ci/mmole) and [^3H]-progesterone (Prog, specific activity 97-102 Ci/mmol) were purchased from Amersham Life Sciences (Arlington Heights, Ill.). Glass fiber type C multiscreen MAFC NOB plates were from Millipore (Burlington, Mass.). Hydroxyapatide Bio-Gel HTP gel was from Bio-Rad Laboratories (Hercules, Calif.). Tris(hydroxymethyl)aminomethane (Tris), ethylenediaminetetraacetic acid (EDTA), glycerol, dithiothreitol (DTT) and sodium moylybdate were obtained from Sigma Chemicals (St. Louis, Mo.). Microscint-20 scintillation fluid was from Packard Instrument (Meriden, Conn.).
(§2) Stock solutions (32 mM) of compounds were prepared in dimethylsulfoxide (DMSO), and 50× solutions of test compounds were prepared from the 32 mM solution with a 50:50 mixture of DMSO/ethanol. The 50× solution was then diluted with binding buffer that contained 10 mM Tri-HCl, 1.5 mM EDTA, 10% glycerol, 1 mM DTT, 20 mM sodium molybdate, pH 7.5 @ 4° C. 1% DMSO/ethanol was present in the binding assay.
GRX and PRA binding reactions were performed in Millipore Multiscreen plates. For GR binding assays, [^3H]-Dex (˜35,000 dpm (˜0.9 nM)), GRX cytosol (˜35 μg protein), test compounds and binding buffer were mixed in a total volume of 200 μL and incubated at 4° C. overnight in a plate shaker. Specific binding was defined as the difference between binding of [^3H]Dex in the absence and in the presence of 1 μM unlabelled Dex.
(§3) After an overnight incubation, 50 μL of hydroxyapatite (25% weight/volume) slurry were added to each well and plates were incubated for 10 min at […] in a plate shaker. Plates were suctioned with a Millipore vacuum manifold and each well was rinsed with 300 μL of ice-cold binding buffer. A 250 μL aliquot of Packard Microscint-20 was added to each well and the wells were shaken at room temperature for 20 minutes. The amount of radioactivity was determined with a Packard TopCount plate reader.
(§4) The concentration of test compounds that inhibited 50% of specific binding (IC50) was determined from a Hill analysis of the competitive binding experiments. The Ki of test compounds was determined using the Cheng-Prusoff equation Ki=IC50/(1+[L*]/[KL]) where L* is the concentration of radioligand and KL is the dissociation constant of the radioligand determined from saturation analysis. For GRX, KL was ˜1.5 nM, and for PRA, KL was ˜4.5 nM.

[2] = target: T2, human progesterone receptor-A [PRA] isoform (Homo sapiens, UniProt P06401); test: Radioligand binding with human progesterone receptor cytosol ([3H]-progesterone); details: [3H]Prog competition, 4° C. overnight, Cheng-Prusoff, read-out: Ki (nM) PR
T2 construct: purchased Ligand Pharmaceuticals (San Diego, Calif.); host or cells: insect SF21 cells (baculovirus)
T2 sequence (P06401 1-769 isoform P06401-2): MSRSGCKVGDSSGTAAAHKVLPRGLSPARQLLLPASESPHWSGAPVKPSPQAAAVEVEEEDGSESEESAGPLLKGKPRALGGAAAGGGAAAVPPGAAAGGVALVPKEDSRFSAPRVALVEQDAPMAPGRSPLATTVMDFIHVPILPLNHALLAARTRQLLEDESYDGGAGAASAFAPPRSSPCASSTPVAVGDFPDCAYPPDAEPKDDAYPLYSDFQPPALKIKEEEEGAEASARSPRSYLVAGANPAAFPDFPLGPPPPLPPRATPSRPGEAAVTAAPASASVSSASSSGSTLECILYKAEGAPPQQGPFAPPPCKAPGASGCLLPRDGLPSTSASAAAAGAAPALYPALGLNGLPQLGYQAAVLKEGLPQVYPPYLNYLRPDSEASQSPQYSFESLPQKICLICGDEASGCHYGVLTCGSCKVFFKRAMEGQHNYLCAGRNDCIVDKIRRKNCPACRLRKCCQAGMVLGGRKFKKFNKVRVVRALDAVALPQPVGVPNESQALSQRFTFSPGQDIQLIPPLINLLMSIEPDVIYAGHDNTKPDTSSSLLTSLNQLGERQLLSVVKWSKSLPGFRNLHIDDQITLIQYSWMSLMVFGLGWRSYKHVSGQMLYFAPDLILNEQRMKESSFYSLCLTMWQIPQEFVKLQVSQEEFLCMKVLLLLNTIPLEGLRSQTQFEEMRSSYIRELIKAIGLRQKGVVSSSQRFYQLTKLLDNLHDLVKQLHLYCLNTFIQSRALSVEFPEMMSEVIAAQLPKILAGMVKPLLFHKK
Excerpt: as §1, §2
For PR binding assays, [^3H]Prog (˜36,000 dpm (˜0.8 nM)), PRA cytosol (˜40 μg protein), test compounds and binding buffer were mixed in a total volume of 200 μL and incubated at 4° C. at overnight in a plate shaker. Specific binding was defined as the difference between binding of [^3H]Prog in the absence and in the presence of 3 μM unlabelled Prog.
as §3, §4

Row | Ki [1] | Ki [2] | melting point | Structure (SMILES)
1 | 230 nM | 10000 nM |  | COc1cc2c(c3c1-c1ccccc1OC3c1ccccc1)C(C)=CC(C)(C)N2 (stereo not drawn) [Example 1, 2,5-dihydro-11-methoxy-5-phenyl-2,2,4-trimethyl-1H-[1]benzopyrano[3,4-f]quinoline]
2 | 640 nM | 14000 nM | 84 to 86 °C | C=CCC1Oc2ccccc2-c2c(OC)cc3c(c21)C(C)=CC(C)(C)N3 (stereo not drawn) [Example 2, 2,5-dihydro-11-methoxy-5-(2-propenyl)-2,2,4-trimethyl-1H-[1]benzopyrano[3,4-f]quinoline]
3 | 200 nM | 10000 nM |  | COc1cc2c(c3c1-c1ccccc1OC3c1cc(Cl)cc(Cl)c1)C(C)=CC(C)(C)N2 (stereo not drawn) [Example 3, 2,5-dihydro-11-methoxy-5-(3,5-dichlorophenyl)-2,2,4-trimethyl-1H-[1]benzopyrano[3,4-f]quinoline]
4 | 270 nM | 8600 nM |  | C=C1CC(C)(C)Nc2cc(OC)c3c(c21)C(c1cc(Cl)cc(Cl)c1)Oc1ccccc1-3 (stereo not drawn) [Example 4, 2,3,5-trihydro-11-methoxy-5-(3,5-dichlorophenyl)-2,2,4-dimethyl-4-methylene-1H-[1]benzopyrano[3,4-f]quinoline]
